{"source": "PubChem BioAssay (NCI)", "test_in_all_cases": "NCI anticancer screen, dose series, 48 h", "key": {"SNB-19 CNS": {"system": "SNB-19 CNS"}, "HOP-62 NSCLC": {"system": "HOP-62 NSCLC"}, "U251 CNS": {"system": "U251 CNS"}, "COLO 205 colon": {"system": "COLO 205 colon"}, "MDA-MB-231 breast": {"system": "MDA-MB-231 breast"}, "ACHN renal": {"system": "ACHN renal"}, "HCC-2998 colon": {"system": "HCC-2998 colon"}, "SN12C renal": {"system": "SN12C renal"}, "NCI-H23 lung": {"system": "NCI-H23 lung"}, "TK-10 renal": {"system": "TK-10 renal"}, "SR leukemia": {"system": "SR leukemia"}, "NCI/ADR-RES ovarian": {"system": "NCI/ADR-RES ovarian"}, "NCI-H226 lung": {"system": "NCI-H226 lung"}, "DU-145 prostate": {"system": "DU-145 prostate"}, "BT-549 breast": {"system": "BT-549 breast"}, "SK-MEL-5 melanoma": {"system": "SK-MEL-5 melanoma"}, "KM12 colon": {"system": "KM12 colon"}, "SK-OV-3 ovarian": {"system": "SK-OV-3 ovarian"}, "RPMI-8226 leukemia": {"system": "RPMI-8226 leukemia"}, "T-47D breast": {"system": "T-47D breast"}, "RXF 393 renal": {"system": "RXF 393 renal"}, "NCI-H522 lung": {"system": "NCI-H522 lung"}, "PC-3 prostate": {"system": "PC-3 prostate"}, "HCT-15 colon": {"system": "HCT-15 colon"}, "IGROV1 ovarian": {"system": "IGROV1 ovarian"}, "UACC-62 melanoma": {"system": "UACC-62 melanoma"}, "UO-31 renal": {"system": "UO-31 renal"}, "OVCAR-5 ovarian": {"system": "OVCAR-5 ovarian"}, "SF-539 CNS": {"system": "SF-539 CNS"}}, "note": "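Test compounds were applied to cells in 96-well plates for 48 hours at 5 doses. Here, GI50 denotes the concentration required for 50% inhibition of growth. TGI is the concentration that stops growth completely.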", "data": [{"compound": "O=C1C(Cl)=C(N2CCOCC2)C(=O)c2ccccc21", "values": [{"measurement": "TGI", "setting": "SNB-19 CNS", "value": 30.1, "unit": "µM"}, {"measurement": "GI50", "setting": "HOP-62 NSCLC", "value": 17.4, "unit": "µM"}, {"measurement": "TGI", "setting": "HOP-62 NSCLC", "value": 31.3, "unit": "µM"}, {"measurement": "GI50", "setting": "U251 CNS", "value": 5.07, "unit": "µM"}, {"measurement": "TGI", "setting": "U251 CNS", "value": 17.8, "unit": "µM"}, {"measurement": "GI50", "setting": "COLO 205 colon", "value": 14.2, "unit": "µM"}, {"measurement": "TGI", "setting": "COLO 205 colon", "value": 27.8, "unit": "µM"}, {"measurement": "GI50", "setting": "MDA-MB-231 breast", "value": 1.75, "unit": "µM"}, {"measurement": "TGI", "setting": "MDA-MB-231 breast", "value": 3.72, "unit": "µM"}, {"measurement": "GI50", "setting": "ACHN renal", "value": 1.99, "unit": "µM"}, {"measurement": "TGI", "setting": "ACHN renal", "value": 3.48, "unit": "µM"}, {"measurement": "GI50", "setting": "HCC-2998 colon", "value": 12, "unit": "µM"}, {"measurement": "TGI", "setting": "HCC-2998 colon", "value": 25.6, "unit": "µM"}, {"measurement": "GI50", "setting": "SN12C renal", "value": 10.7, "unit": "µM"}, {"measurement": "TGI", "setting": "SN12C renal", "value": 23.1, "unit": "µM"}, {"measurement": "GI50", "setting": "NCI-H23 lung", "value": 3.32, "unit": "µM"}, {"measurement": "TGI", "setting": "NCI-H23 lung", "value": 20.9, "unit": "µM"}, {"measurement": "GI50", "setting": "TK-10 renal", "value": 16.7, "unit": "µM"}, {"measurement": "TGI", "setting": "TK-10 renal", "value": 30.4, "unit": "µM"}, {"measurement": "GI50", "setting": "SR leukemia", "value": 2.77, "unit": "µM"}, {"measurement": "TGI", "setting": "SR leukemia", "value": 7.87, "unit": "µM"}, {"measurement": "GI50", "setting": "NCI/ADR-RES ovarian", "value": 3.11, "unit": "µM"}, {"measurement": "TGI", "setting": "NCI/ADR-RES ovarian", "value": 13, "unit": "µM"}, {"measurement": "GI50", "setting": "NCI-H226 lung", "value": 11.8, "unit": "µM"}, {"measurement": "TGI", "setting": "NCI-H226 lung", "value": 24.2, "unit": "µM"}, {"measurement": "GI50", "setting": "DU-145 prostate", "value": 17.7, "unit": "µM"}, {"measurement": "TGI", "setting": "DU-145 prostate", "value": 31.9, "unit": "µM"}, {"measurement": "GI50", "setting": "BT-549 breast", "value": 10.8, "unit": "µM"}, {"measurement": "TGI", "setting": "BT-549 breast", "value": 23.2, "unit": "µM"}, {"measurement": "GI50", "setting": "SK-MEL-5 melanoma", "value": 6.82, "unit": "µM"}, {"measurement": "TGI", "setting": "SK-MEL-5 melanoma", "value": 19.4, "unit": "µM"}, {"measurement": "GI50", "setting": "KM12 colon", "value": 13.7, "unit": "µM"}, {"measurement": "TGI", "setting": "KM12 colon", "value": 27.6, "unit": "µM"}, {"measurement": "GI50", "setting": "SK-OV-3 ovarian", "value": 18.3, "unit": "µM"}, {"measurement": "TGI", "setting": "SK-OV-3 ovarian", "value": 32.2, "unit": "µM"}, {"measurement": "GI50", "setting": "RPMI-8226 leukemia", "value": 2.63, "unit": "µM"}, {"measurement": "TGI", "setting": "RPMI-8226 leukemia", "value": 7.87, "unit": "µM"}, {"measurement": "GI50", "setting": "T-47D breast", "value": 2.31, "unit": "µM"}, {"measurement": "TGI", "setting": "T-47D breast", "value": 5.13, "unit": "µM"}, {"measurement": "GI50", "setting": "RXF 393 renal", "value": 1.85, "unit": "µM"}, {"measurement": "TGI", "setting": "RXF 393 renal", "value": 3.26, "unit": "µM"}, {"measurement": "GI50", "setting": "NCI-H522 lung", "value": 1.67, "unit": "µM"}, {"measurement": "TGI", "setting": "NCI-H522 lung", "value": 3.23, "unit": "µM"}, {"measurement": "GI50", "setting": "PC-3 prostate", "value": 9.38, "unit": "µM"}, {"measurement": "TGI", "setting": "PC-3 prostate", "value": 23.7, "unit": "µM"}, {"measurement": "GI50", "setting": "HCT-15 colon", "value": 2.11, "unit": "µM"}, {"measurement": "TGI", "setting": "HCT-15 colon", "value": 4.33, "unit": "µM"}, {"measurement": "GI50", "setting": "IGROV1 ovarian", "value": 3.33, "unit": "µM"}, {"measurement": "TGI", "setting": "IGROV1 ovarian", "value": 6.74, "unit": "µM"}, {"measurement": "GI50", "setting": "UACC-62 melanoma", "value": 3.06, "unit": "µM"}, {"measurement": "TGI", "setting": "UACC-62 melanoma", "value": 10.7, "unit": "µM"}, {"measurement": "GI50", "setting": "UO-31 renal", "value": 1.64, "unit": "µM"}, {"measurement": "TGI", "setting": "UO-31 renal", "value": 3.28, "unit": "µM"}, {"measurement": "GI50", "setting": "OVCAR-5 ovarian", "value": 20.7, "unit": "µM"}, {"measurement": "TGI", "setting": "OVCAR-5 ovarian", "value": 36.4, "unit": "µM"}, {"measurement": "GI50", "setting": "SF-539 CNS", "value": 20.1, "unit": "µM"}, {"measurement": "TGI", "setting": "SF-539 CNS", "value": 34.6, "unit": "µM"}]}]}
